# From patent publication US20210070748A1, “INHIBITORS OF BRUTONS TYROSINE KINASE” (Pharmacyclics LLC, priority 2015, published 2021)
# Structures can show the parent of a compound that is named as a salt. Where two headings read alike, the source gives them in different places.
# Experiments:
# Type in all cases: biochemical
# [1] = target: T1, BTK-WT (Homo sapiens, UniProt Q06187); assay: Btk in vitro inhibitory activity (one of Method A TR-FRET, Method B electrophoretic mobility shift, Method C radiometric filter binding); settings: read-out: BTK-WT (IC50)
# T1 construct: purified from insect cells as a full-length construct containing an N-terminal 6X-His tag; His6 (N); made in house; host or cells: insect cells (baculovirus Sf21 in Method B)
# [2] = target: LCK (Homo sapiens, UniProt P06239); assay: Inhibition of a panel of kinases, in vitro HotSpot kinase assay: LCK; settings: 1 μM ATP, read-out: LCK (IC50)
# [3] = target: T2, JAK3 (Homo sapiens, UniProt P52333); assay: Inhibition of a panel of kinases, in vitro HotSpot kinase assay: JAK3; settings: 1 μM ATP, read-out: JAK3 (IC50)
# T2 sequence (P52333 1-1124): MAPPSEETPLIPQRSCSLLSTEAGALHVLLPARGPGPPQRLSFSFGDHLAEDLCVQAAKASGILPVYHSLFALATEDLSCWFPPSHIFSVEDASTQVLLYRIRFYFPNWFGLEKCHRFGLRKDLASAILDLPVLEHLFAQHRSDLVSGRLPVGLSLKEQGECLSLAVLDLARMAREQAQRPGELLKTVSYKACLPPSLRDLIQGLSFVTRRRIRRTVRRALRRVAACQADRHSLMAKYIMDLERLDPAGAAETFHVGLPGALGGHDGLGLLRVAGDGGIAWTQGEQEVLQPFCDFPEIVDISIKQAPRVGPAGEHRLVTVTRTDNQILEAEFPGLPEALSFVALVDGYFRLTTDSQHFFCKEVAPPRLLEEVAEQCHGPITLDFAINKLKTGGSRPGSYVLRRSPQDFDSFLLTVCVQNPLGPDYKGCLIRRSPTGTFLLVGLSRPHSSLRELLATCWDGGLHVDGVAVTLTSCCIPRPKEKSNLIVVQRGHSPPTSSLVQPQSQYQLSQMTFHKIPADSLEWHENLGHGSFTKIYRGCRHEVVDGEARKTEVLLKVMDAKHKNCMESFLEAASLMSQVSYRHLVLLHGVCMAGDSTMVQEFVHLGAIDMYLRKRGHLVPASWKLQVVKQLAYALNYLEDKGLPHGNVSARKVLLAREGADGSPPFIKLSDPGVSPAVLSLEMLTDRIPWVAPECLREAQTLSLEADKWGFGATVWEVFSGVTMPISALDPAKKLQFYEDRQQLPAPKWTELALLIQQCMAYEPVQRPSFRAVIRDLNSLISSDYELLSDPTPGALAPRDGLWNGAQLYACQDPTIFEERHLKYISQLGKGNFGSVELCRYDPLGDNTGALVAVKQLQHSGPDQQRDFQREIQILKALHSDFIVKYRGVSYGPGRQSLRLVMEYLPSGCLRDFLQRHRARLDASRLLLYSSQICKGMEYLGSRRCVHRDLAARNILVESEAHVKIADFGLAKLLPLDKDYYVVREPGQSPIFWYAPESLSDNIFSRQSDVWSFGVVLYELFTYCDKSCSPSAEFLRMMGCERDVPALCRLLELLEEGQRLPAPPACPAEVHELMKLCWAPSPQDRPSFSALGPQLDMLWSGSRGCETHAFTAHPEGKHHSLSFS
# T1 sequence (Q06187 whole entry): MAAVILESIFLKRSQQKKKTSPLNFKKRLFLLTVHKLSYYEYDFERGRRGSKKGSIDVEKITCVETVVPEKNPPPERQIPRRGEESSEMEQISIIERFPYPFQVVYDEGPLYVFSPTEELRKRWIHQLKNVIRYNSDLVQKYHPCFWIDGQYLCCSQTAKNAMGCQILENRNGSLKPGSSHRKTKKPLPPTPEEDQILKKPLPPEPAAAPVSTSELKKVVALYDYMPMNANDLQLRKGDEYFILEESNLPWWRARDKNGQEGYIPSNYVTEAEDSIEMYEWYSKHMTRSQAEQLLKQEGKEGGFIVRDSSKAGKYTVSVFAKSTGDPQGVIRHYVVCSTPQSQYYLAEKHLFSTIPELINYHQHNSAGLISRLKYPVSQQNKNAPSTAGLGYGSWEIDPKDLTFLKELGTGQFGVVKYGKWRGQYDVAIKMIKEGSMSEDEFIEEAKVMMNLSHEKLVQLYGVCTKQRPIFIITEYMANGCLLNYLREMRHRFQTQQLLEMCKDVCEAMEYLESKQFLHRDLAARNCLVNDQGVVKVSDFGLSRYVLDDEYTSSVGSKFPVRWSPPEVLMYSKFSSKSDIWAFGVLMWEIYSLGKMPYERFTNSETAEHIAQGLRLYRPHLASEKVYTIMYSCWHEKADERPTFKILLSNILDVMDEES
# LCK, sequence (P06239 whole entry): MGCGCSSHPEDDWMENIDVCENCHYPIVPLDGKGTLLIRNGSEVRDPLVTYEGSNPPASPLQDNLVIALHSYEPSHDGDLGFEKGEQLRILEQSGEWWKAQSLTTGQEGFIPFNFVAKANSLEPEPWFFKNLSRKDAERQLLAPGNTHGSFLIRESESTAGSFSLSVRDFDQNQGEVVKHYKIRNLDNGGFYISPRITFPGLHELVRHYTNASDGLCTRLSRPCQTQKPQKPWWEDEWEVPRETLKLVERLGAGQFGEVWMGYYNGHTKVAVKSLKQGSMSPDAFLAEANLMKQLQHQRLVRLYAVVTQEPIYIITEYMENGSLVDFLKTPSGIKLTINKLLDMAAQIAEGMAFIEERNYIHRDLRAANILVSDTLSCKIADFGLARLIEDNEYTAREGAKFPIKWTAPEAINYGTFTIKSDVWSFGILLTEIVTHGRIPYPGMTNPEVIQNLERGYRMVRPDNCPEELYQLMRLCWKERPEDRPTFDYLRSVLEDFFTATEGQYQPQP
Compound,"IC50 ([1]; Table 10, Formula A-I) [nM]","IC50 ([2]; Table 10, Formula A-I) [nM]","IC50 ([3]; Table 10, Formula A-I) [nM]",also measured
"NC(=O)c1ncc(N2CCC[C@@H](NC(=O)Nc3ccccc3)C2)nc1Nc1ccc(C2CCN(C3CCCC3)CC2)cc1 [Example A-2, 3-{[4-(1-cyclopentylpiperidin-4-yl)phenyl]amino}-5-[(3R)-3-[(phenylcarbamoyl)amino]piperidin-1-yl]pyrazine-2-carboxamide hydrochloride]",≤ 100,< 100,100 to 1000,
"Cc1cc(Nc2nc(N3CCC[C@@H](NC(=O)c4cccc(N(C)C)c4)C3)cnc2C(N)=O)sn1 [Example A-27, (5-[(3R)-3-[3-(dimethylamino)benzamido]piperidin-1-yl]-3-[(3-methyl-1,2-thiazol-5-yl)amino]pyrazine-2-carboxamide hydrochloride]",≤ 100,100 to 1000,1000 to 10000,
"Cc1cc(Nc2nc(N(C)[C@H]3CCCN(C(=O)N(C)C)C3)cnc2C(N)=O)sn1 [Example C-8, 5-([(3S)-1-(dimethylcarbamoyl)piperidin-3-yl](methyl)amino)-3-[(3-methyl-1,2-thiazol-5-yl)amino]pyrazine-2-carboxamide]",,,,"IC50 ([1]; Table 12, Formula C-I): 100 to 1000 nM; IC50 ([2]; Table 12, Formula C-I): 1000 to 10000 nM; IC50 ([3]; Table 12, Formula C-I): 1000 to 10000 nM"
"Cc1cc(Nc2nc(N3CCC[C@@H](NC(=O)c4ccncc4)C3)cnc2C(N)=O)sn1 [Example A-29, 3-[(3-methyl-1,2-thiazol-5-yl)amino]-5-[(3R)-3-(pyridine-4-amido)piperidin-1-yl]pyrazine-2-carboxamide]",≤ 100,1000 to 10000,100 to 1000,
"NC(=O)c1ncc(N2CCC[C@@H](NC(=O)NC3CCCCC3)C2)nc1Nc1ccc(C2CCN(C3CCCC3)CC2)cc1 [Example A-3, 5-[(3R)-3-[(cyclohexylcarbamoyl)amino]piperidin-1-yl]-3-{[4-(1-cyclopentylpiperidin-4-yl)phenyl]amino}pyrazine-2-carboxamide]",≤ 100,100 to 1000,,
"CS(=O)(=O)c1ccc(Nc2nc(N3CCC[C@@H](NC(=O)Nc4cccnc4)C3)cnc2C(N)=O)cc1 [Example A-43, 3-[(4-methanesulfonylphenyl)amino]-5-[(3R)-3-{[(pyridin-3-yl)carbamoyl]amino}piperidin-1-yl]pyrazine-2-carboxamide]",≤ 100,100 to 1000,,
Cc1cc(Nc2nc(N3CCC[C@@H](NC(=O)Nc4ccccc4)C3)cnc2C(N)=O)sn1 [Example A-9],≤ 100,< 100,,
"Cc1cc(Nc2nc(NC3CCC(NC(=O)N(C)C)CC3)cnc2C(N)=O)sn1 (stereo not shown) [Example B-3, 5-({4-[(dimethylcarbamoyl)amino]cyclohexyl}amino)-3-[(3-methyl-1,2-thiazol-5-yl)amino]pyrazine-2-carboxamide]",,,,"IC50 ([1]; Table 11, Formula B-I): ≤ 100 nM; IC50 ([3]; Table 11, Formula B-I): < 100 nM"
"CS(=O)(=O)c1ccc(Nc2nc(N3CCC[C@@H](NC(=O)Nc4ccccc4)C3)cnc2C(N)=O)cc1 [Example A-42, 3-[(4-methanesulfonylphenyl)amino]-5-[(3R)-3-[(phenylcarbamoyl)amino]piperidin-1-yl]pyrazine-2-carboxamide]",≤ 100,100 to 1000,,
"COc1cccc(NC(=O)N[C@@H]2CCCN(c3cnc(C(N)=O)c(Nc4cc(C)ns4)n3)C2)c1 [Example A-16, 5-[(3R)-3-{[(3-methoxyphenyl)carbamoyl]amino}piperidin-1-yl]-3-[(3-methyl-1,2-thiazol-5-yl)amino]pyrazine-2-carboxamide]",≤ 100,100 to 1000,,
"NC(=O)c1ncc(N2CCC[C@@H](NC(=O)Nc3cccnc3)C2)nc1Nc1ccc(C2CCN(C3CCCC3)CC2)cc1 [Example A-1, 3-{[4-(1-cyclopentylpiperidin-4-yl)phenyl]amino)-5-[(3R)-3-([(pyridin-3-yl)carbamoyl]amino}piperidin-1-yl]pyrazine-2-carboxamide]",≤ 100,< 100,,
Cc1cc(Nc2nc(N3CCC[C@@H](NC(=O)Nc4ccc(F)cc4)C3)cnc2C(N)=O)sn1 [Example A-14],≤ 100,100 to 1000,,
"COc1ccc(NC(=O)N[C@@H]2CCCN(c3cnc(C(N)=O)c(Nc4cc(C)ns4)n3)C2)cc1 [Example A-15, 5-[(3R)-3-{[(4-methoxyphenyl)carbamoyl]amino}piperidin-1-yl]-3-[(3-methyl-1,2-thiazol-5-yl)amino]pyrazine-2-carboxamide]",≤ 100,100 to 1000,,
CN(C)c1ccc(C(=O)N[C@H]2CC[C@H](Nc3cnc(C(N)=O)c(Nc4ccc5ncccc5c4)n3)CC2)cc1 [Example B-2],,,,"IC50 ([1]; Table 11, Formula B-I): 100 to 1000 nM; IC50 ([3]; Table 11, Formula B-I): > 10000 nM"
"Cc1cc(Nc2nc(NC3CCC(NC(=O)c4ccccc4)CC3)cnc2C(N)=O)sn1 (stereo not shown) [Example B-4, 5-[(4-benzamidocyclohexyl)amino]-3-[(3-methyl-1,2-thiazol-5-yl)amino]pyrazine-2-carboxamide]",,,,"IC50 ([1]; Table 11, Formula B-I): ≤ 100 nM; IC50 ([3]; Table 11, Formula B-I): < 100 nM"
"Cc1cc(Nc2nc(N3CCC[C@@H](NC(=O)c4ccc(C5CC5)cc4F)C3)cnc2C(N)=O)sn1 [Example A-39, 5-[(3R)-3-(4-cyclopropyl-2-fluorobenzamido)piperidin-1-yl]-3-[(3-methyl-1,2-thiazol-5-yl)amino]pyrazine-2-carboxamide]",≤ 100,,> 10000,

# The next lines start with results.
"IC50 ([1]; Table 10, Formula A-I) [nM]","IC50 ([2]; Table 10, Formula A-I) [nM]","IC50 ([3]; Table 10, Formula A-I) [nM]",Compound,also measured
≤ 100,1000 to 10000,1000 to 10000,"Cc1cc(Nc2nc(N3CCC[C@H](NC(=O)N(C)C)[C@@H]3C)cnc2C(N)=O)sn1 [Example A-58, 5-[(2S,3S)-3-[(dimethylcarbamoyl)amino]-2-methylpiperidin-1-yl]-3-[(3-methyl-1,2-thiazol-5-yl)amino]pyrazine-2-carboxamide]",
100 to 1000,> 10000,,"CC(C)c1ccc(Nc2nc(N3CCC(C(N)=O)CC3)nnc2C(N)=O)cc1 [Example A-91, 3-(4-carbamoylpiperidin-1-yl)-5-(4-isopropylphenylamino)-1,2,4-triazine-6-carboxamide]",
≤ 100,,1000 to 10000,"Cc1cc(Nc2nc(N3CCC[C@@H](NC(=O)c4ccc(C5CC5)cc4F)[C@H]3C)cnc2C(N)=O)sn1 [Example A-74, 5-[(2R,3R)-3-(4-cyclopropyl-2-fluorobenzamido)-2-methylpiperidin-1-yl]-3-[(3-methyl-1,2-thiazol-5-yl)amino]pyrazine-2-carboxamide]",
100 to 1000,,> 10000,"Cc1cc(Nc2nc(N3CCC[C@@H](NC(=O)c4ccc(N(C)C)cc4)[C@H]3CO)cnc2C(N)=O)sn1 (stereo in doubt) [Example A-68, 5-[(2S,3R)-3-[4-(dimethylamino)benzamido]-2-(hydroxymethyl)piperidin-1-yl]-3-[(3-methyl-1,2-thiazol-5-yl)amino]pyrazine-2-carboxamide]",
1000 to 10000,,> 10000,"CC(C)c1ccc(C(=O)N[C@@H]2CCCN(c3cnc(C(N)=O)c(Nc4ccccc4)n3)C2)cc1 [Example A-65, 3-(phenylamino)-5-[(3R)-3-[4-(propan-2-yl)benzamido]piperidin-1-yl]pyrazine-2-carboxamide]",
1000 to 10000,,> 10000,"Cc1cc(Nc2c(C(N)=O)ncc(N3CCC[C@@H](NC(=O)c4ccc(N(C)C)cc4)C3)c2C)sn1 [Example A-66, 5-[(3R)-3-[4-(dimethylamino)benzamido]piperidin-1-yl]-4-methyl-3-[(3-methyl-1,2-thiazol-5-yl)amino]pyridine-2-carboxamide]",
